Assay results: ChEMBL document CHEMBL1201861, “Genomics of Drug Sensitity in Cancer screening data, Wellcome Trust Sanger Institute”
pIC50: −log10 of the molar value.

How the values were obtained:
[1] = system: COR-L279; assay: SANGER: Inhibition of human COR-L279 cell growth in a cell viability assay.; format: functional, cell-based
[2] = system: DG-75; assay: cells; format: functional, cell-based; settings: Homo sapiens;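 note: growth inhibition of DG-75 cells, read out with a cell viability assay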
Description: SANGER: Inhibition of human DG-75 cell growth in a cell viability assay.

[3] = system: Daudi; assay: cells; format: functional, cell-based; settings: Homo sapiens;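 note: growth inhibition of Daudi cells, read out by a viability assay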
Description: SANGER: Inhibition of human Daudi cell growth in a cell viability assay.

[4] = system: EB-3; assay: cells; format: functional, cell-based; settings: Homo sapiens;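 note: human EB-3 cells, growth inhibition read out via a cell viability assay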
Description: SANGER: Inhibition of human EB-3 cell growth in a cell viability assay.

[5] = system: GDM-1; assay: cells; format: functional, cell-based; settings: Homo sapiens;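 note: cell viability readout used to measure growth inhibition of human GDM-1 cells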
Description: SANGER: Inhibition of human GDM-1 cell growth in a cell viability assay.

[6] = system: HCC1599; assay: cells; format: functional, cell-based; settings: Homo sapiens;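 note: growth inhibition of HCC1599 cells, read out in a cell viability assay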
Description: SANGER: Inhibition of human HCC1599 cell growth in a cell viability assay.

[7] = system: JIYOYE; assay: cells; format: functional, cell-based; settings: Homo sapiens
Description: SANGER: Inhibition of human JiyoyeP-2003 cell growth in a cell viability assay.

[8] = system: K052; assay: cells; format: functional, cell-based; settings: Homo sapiens;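 note: Read-out from a cell viability assay, IC50 reflecting suppression of K052 cell growth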
Description: SANGER: Inhibition of human K052 cell growth in a cell viability assay.

[9] = system: KARPAS-422; assay: cells; format: functional, cell-based; settings: Homo sapiens
Description: SANGER: Inhibition of human KARPAS-422 cell growth in a cell viability assay.

[10] = system: KMS-12-PE; assay: cells; format: functional, cell-based; settings: Homo sapiens;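 note: growth inhibition of human KMS-12-PE cells, measured with a cell viability assay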
Description: SANGER: Inhibition of human KMS-12-PE cell growth in a cell viability assay.

[11] = system: LC-1F; assay: cells; format: functional, cell-based; settings: Homo sapiens;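 note: growth inhibition of human LC-1F cells, read out with a cell viability assay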
Description: SANGER: Inhibition of human LC-1F cell growth in a cell viability assay.

[12] = system: LOUCY; assay: cells; format: functional, cell-based; settings: Homo sapiens;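 note: growth inhibition of human LOUCY cells, read out with a cell viability assay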
Description: SANGER: Inhibition of human LOUCY cell growth in a cell viability assay.

[13] = system: LP-1; assay: cells; format: functional, cell-based; settings: Homo sapiens;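 note: growth inhibition of human LP-1 cells, with the read-out taken from a cell viability assay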
Description: SANGER: Inhibition of human LP-1 cell growth in a cell viability assay.

[14] = system: LU-165; assay: cells; format: functional, cell-based; settings: Homo sapiens
Description: SANGER: Inhibition of human LU-165 cell growth in a cell viability assay.

[15] = system: MDA-MB-134-VI; assay: cells; format: functional, cell-based; settings: Homo sapiens
Description: SANGER: Inhibition of human MDA-MB-134-VI cell growth in a cell viability assay.

[16] = system: MHH-CALL-2; assay: cells; format: functional, cell-based; settings: Homo sapiens;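 note: growth inhibition of the cell line, read out in a cell viability assay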
Description: SANGER: Inhibition of human MHH-CALL-2 cell growth in a cell viability assay.

[17] = system: MONO-MAC-6; assay: cells; format: functional, cell-based; settings: Homo sapiens;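 note: cell viability assay measuring growth inhibition of human MONO-MAC-6 cells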
Description: SANGER: Inhibition of human MONO-MAC-6 cell growth in a cell viability assay.

[18] = system: NCI-H1417; assay: cells; format: functional, cell-based; settings: Homo sapiens;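 note: human NCI-H1417 cells, growth inhibition determined with a cell viability readout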
Description: SANGER: Inhibition of human NCI-H1417 cell growth in a cell viability assay.

[19] = system: NCI-H1436; assay: cells; format: functional, cell-based; settings: Homo sapiens;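 note: growth suppression of human NCI-H1436 cells, determined with a cell viability readout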
Description: SANGER: Inhibition of human NCI-H1436 cell growth in a cell viability assay.

[20] = system: NCI-H1694; assay: cells; format: functional, cell-based; settings: Homo sapiens;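 note: cell viability assay measuring inhibition of growth in human NCI-H1694 cells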
Description: SANGER: Inhibition of human NCI-H1694 cell growth in a cell viability assay.

[21] = system: NCI-H1703; assay: cells; format: functional, cell-based, Homo sapiens; settings: Homo sapiens, NCI-H1703;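 note: growth inhibition of NCI-H1703 cells, read out via a cell viability assay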
Description: SANGER: Inhibition of human NCI-H1703 cell growth in a cell viability assay.

[22] = system: NCI-H1882; assay: cells; format: functional, cell-based; settings: Homo sapiens;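 note: growth inhibition of the cell line, determined with a viability assay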
Description: SANGER: Inhibition of human NCI-H1882 cell growth in a cell viability assay.

[23] = system: NCI-H2009; assay: cells; format: functional, cell-based, Homo sapiens; settings: Homo sapiens, NCI-H2009;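 note: cell viability assay measuring inhibition of NCI-H2009 cell growth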
Description: SANGER: Inhibition of human NCI-H2009 cell growth in a cell viability assay.

[24] = system: NCI-H2081; assay: cells; format: functional, cell-based; settings: Homo sapiens;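 note: growth inhibition of human NCI-H2081 cells, read out with a cell viability assay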
Description: SANGER: Inhibition of human NCI-H2081 cell growth in a cell viability assay.

[25] = system: NCI-H2141; assay: cells; format: functional, cell-based; settings: Homo sapiens;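 note: growth inhibition of human NCI-H2141 cells, read out with a cell viability assay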
Description: SANGER: Inhibition of human NCI-H2141 cell growth in a cell viability assay.

[26] = system: NCI-H2171; assay: cells; format: functional, cell-based; settings: Homo sapiens;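 note: growth inhibition of human NCI-H2171 cells, read out by a cell viability assay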
Description: SANGER: Inhibition of human NCI-H2171 cell growth in a cell viability assay.

[27] = system: NCI-H719; assay: cells; format: functional, cell-based; settings: Homo sapiens;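 note: growth inhibition of the cultured cell line, read out with a viability assay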
Description: SANGER: Inhibition of human NCI-H719 cell growth in a cell viability assay.

[28] = system: SNU-16; assay: cells; format: functional, cell-based; settings: Homo sapiens;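 note: growth inhibition of human SNU-16 cells, determined with a cell viability readout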
Description: SANGER: Inhibition of human NCI-SNU-16 cell growth in a cell viability assay.

[29] = system: P31-FUJ; assay: cells; format: functional, cell-based; settings: Homo sapiens;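 note: growth inhibition of P31-FUJ cells, read out with a viability assay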
Description: SANGER: Inhibition of human P31-FUJ cell growth in a cell viability assay.

[30] = system: RL; assay: cells; format: functional, cell-based; settings: Homo sapiens
Description: SANGER: Inhibition of human RL cell growth in a cell viability assay.

[31] = system: RPMI-6666; assay: cells; format: functional, cell-based; settings: Homo sapiens
Description: SANGER: Inhibition of human RPMI-6666 cell growth in a cell viability assay.

[32] = system: Raji; assay: cells; format: functional, cell-based; settings: Homo sapiens;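 note: cell viability assay measuring inhibition of Raji cell growth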
Description: SANGER: Inhibition of human Raji cell growth in a cell viability assay.

[33] = system: SCC-3; assay: cells; format: functional, cell-based; settings: Homo sapiens;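 note: cell viability assay measuring inhibition of SCC-3 cell growth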
Description: SANGER: Inhibition of human SCC-3 cell growth in a cell viability assay.

[34] = system: SCLC-21H; assay: cells; format: functional, cell-based; settings: Homo sapiens;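 note: growth inhibition of cultured human SCLC-21H cells, read out with a cell viability assay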
Description: SANGER: Inhibition of human SCLC-21H cell growth in a cell viability assay.

[35] = system: SJRH30; assay: cells; format: functional, cell-based; settings: Homo sapiens;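 note: growth inhibition of human SJRH30 cells, read out with a cell viability assay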
Description: SANGER: Inhibition of human SJRH30 cell growth in a cell viability assay.

[36] = system: SK-MM-2; assay: cells; format: functional, cell-based; settings: Homo sapiens;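 note: growth inhibition of human SK-MM-2 cells, read out with a cell viability assay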
Description: SANGER: Inhibition of human SK-MM-2 cell growth in a cell viability assay.

[37] = system: SU-DHL-1; assay: SANGER: Inhibition of human SU-DHL-1 cell growth in a cell viability assay.; format: functional, cell-based
[38] = system: SUP-T1; assay: cells; format: functional, cell-based; settings: Homo sapiens;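 note: growth inhibition of human SUP-T1 cells, read out as cell viability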
Description: SANGER: Inhibition of human SUP-T1 cell growth in a cell viability assay.

[39] = system: ARH-77; assay: cells; format: functional, cell-based; settings: Homo sapiens;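 note: growth inhibition of ARH-77 cells, read out by a cell viability assay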
Description: SANGER: Inhibition of human ARH-77 cell growth in a cell viability assay.

[40] = system: BL-70; assay: SANGER: Inhibition of human BL-70 cell growth in a cell viability assay.; format: functional, cell-based
[41] = system: BOKU; assay: cells; format: functional, cell-based; settings: Homo sapiens;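 note: growth inhibition of the human BOKU cell line, read out by a cell viability assay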
Description: SANGER: Inhibition of human BOKU cell growth in a cell viability assay.

[42] = system: WSU-NHL; assay: cells; format: functional, cell-based; settings: Homo sapiens;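 note: growth inhibition of human WSU-NHL cells, read out with a cell viability assay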
Description: SANGER: Inhibition of human WSU-NHL cell growth in a cell viability assay.

[43] = system: CESS; assay: SANGER: Inhibition of human CESS cell growth in a cell viability assay.; format: functional, cell-based
[44] = system: EW-22; assay: cells; format: functional, cell-based; settings: Homo sapiens;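 note: growth inhibition of the EW-22 cell line, measured with a cell viability readout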
Description: SANGER: Inhibition of human EW-22 cell growth in a cell viability assay.

Structure (SMILES): Cc1ccc(Nc2nccc(N(C)c3ccc4c(C)n(C)nc4c3)n2)cc1S(N)(=O)=O [PAZOPANIB]
- pIC50 [1]: < 5.10
- pIC50 [2]: < 5.10
- pIC50 [3]: 5.44
- pIC50 [4]: < 5.10
- pIC50 [5]: 6.98
- pIC50 [6]: < 5.10
- pIC50 [7]: < 5.10
- pIC50 [8]: < 5.10
- pIC50 [9]: < 5.10
- pIC50 [10]: < 5.10
- pIC50 [11]: < 5.10
- pIC50 [12]: < 5.10
- pIC50 [13]: < 5.10
- pIC50 [14]: < 5.10
- pIC50 [15]: < 5.10
- pIC50 [16]: < 5.10
- pIC50 [17]: < 5.10
- pIC50 [18]: < 5.10
- pIC50 [19]: < 5.10
- pIC50 [20]: < 5.10
- pIC50 [21]: < 5.10
- pIC50 [22]: < 5.10
- pIC50 [23]: < 5.10
- pIC50 [24]: < 5.10
- pIC50 [25]: < 5.10
- pIC50 [26]: < 5.10
- pIC50 [27]: < 5.10
- pIC50 [28]: < 5.10
- pIC50 [29]: < 5.10
- pIC50 [30]: < 5.10
- pIC50 [31]: < 5.10
- pIC50 [32]: < 5.10
- pIC50 [33]: < 5.10
- pIC50 [34]: < 5.10
- pIC50 [35]: < 5.10
- pIC50 [36]: < 5.10
- pIC50 [37]: < 5.10
- pIC50 [38]: < 5.10
- pIC50 [39]: < 5.10
- pIC50 [40]: < 5.10
- pIC50 [41]: < 5.10
- pIC50 [42]: < 5.10
- pIC50 [43]: < 5.10

Structure (SMILES): CO[C@H]1C[C@@H]2CC[C@@H](C)[C@@](O)(O2)C(=O)C(=O)N2CCCC[C@H]2C(=O)O[C@H]([C@H](C)C[C@@H]2CC[C@@H](O)[C@H](OC)C2)CC(=O)[C@H](C)/C=C(\C)[C@@H](O)[C@@H](OC)C(=O)[C@H](C)C[C@H](C)/C=C/C=C/C=C/1C [SIROLIMUS]
- pIC50 [1]: 7.06
- pIC50 [2]: < 7.00
- pIC50 [3]: 9.36
- pIC50 [4]: 7.28
- pIC50 [44]: < 7.00
- pIC50 [5]: < 7.00
- pIC50 [6]: < 7.00
- pIC50 [7]: 7.96
- pIC50 [8]: < 7.00
- pIC50 [9]: < 7.00
- pIC50 [10]: < 7.00
- pIC50 [11]: < 7.00
- pIC50 [12]: < 7.00
- pIC50 [13]: < 7.00
- pIC50 [14]: < 7.00
- pIC50 [15]: 7.36
- pIC50 [16]: < 7.00
- pIC50 [17]: < 7.00
- pIC50 [18]: < 7.00
- pIC50 [19]: < 7.00
- pIC50 [20]: < 7.00
- pIC50 [22]: < 7.00
- pIC50 [24]: < 7.00
- pIC50 [25]: < 7.00
- pIC50 [26]: < 7.00
- pIC50 [27]: < 7.00
- pIC50 [28]: < 7.00
- pIC50 [29]: < 7.00
- pIC50 [30]: < 7.00
- pIC50 [31]: 7.61
- pIC50 [32]: 7.05
- pIC50 [33]: < 7.00
- pIC50 [34]: < 7.00
- pIC50 [36]: < 7.00
- pIC50 [37]: < 7.00
- pIC50 [38]: < 7.00
- pIC50 [39]: 7.28
- pIC50 [40]: 7.55
- pIC50 [41]: < 7.00
- pIC50 [42]: < 7.00
- pIC50 [43]: 7.88

Structure (SMILES): Cn1cncc1[C@@](N)(c1ccc(Cl)cc1)c1ccc2c(c1)c(-c1cccc(Cl)c1)cc(=O)n2C [TIPIFARNIB]
- pIC50 [1]: 5.10
- pIC50 [2]: < 4.80
- pIC50 [3]: 5.60
- pIC50 [4]: 5.04
- pIC50 [5]: 6.45
- pIC50 [6]: < 4.80
- pIC50 [7]: 5.04
- pIC50 [8]: 4.80
- pIC50 [9]: < 4.80
- pIC50 [10]: < 4.80
- pIC50 [11]: < 4.80
- pIC50 [12]: < 4.80
- pIC50 [13]: < 4.80
- pIC50 [14]: < 4.80
- pIC50 [15]: < 4.80
- pIC50 [16]: 4.98
- pIC50 [17]: 5.48
- pIC50 [18]: < 4.80
- pIC50 [19]: < 4.80
- pIC50 [20]: < 4.80
- pIC50 [21]: < 4.80
- pIC50 [22]: < 4.80
- pIC50 [23]: 6.44
- pIC50 [24]: < 4.80
- pIC50 [25]: < 4.80
- pIC50 [26]: 5.45
- pIC50 [27]: 4.98
- pIC50 [28]: < 4.80
- pIC50 [29]: < 4.80
- pIC50 [30]: < 4.80
- pIC50 [31]: > 7.20
- pIC50 [32]: 4.90
- pIC50 [33]: < 4.80
- pIC50 [34]: < 4.80
- pIC50 [35]: 5.06
- pIC50 [36]: < 4.80
- pIC50 [37]: 5.14
- pIC50 [38]: 6.10
- pIC50 [39]: < 4.80
- pIC50 [40]: 5.71
- pIC50 [41]: < 4.80
- pIC50 [42]: < 4.80
- pIC50 [43]: 5.69
